Laboratory results from patent US20070259933A1, “COMPOSITIONS, DOSAGE FORMS AND METHODS OF TREATING EMESIS” (XenoPort, Inc., priority 2006, published 2007).
Like-named read-outs stand apart in the source and are kept apart here.

Key:
[1] = cited from earlier work
[2] = oral dosing, rats; cited from earlier work
[3] = system: sedation / general anesthesia; conditions: in vivo; cited from earlier work
[4] = orally administered propofol; dose-normalized oral vs intravenous; cited from earlier work
[5] = Regional gastrointestinal absorption of propofol prodrug; assay type: in vivo; conditions: oral; colon vs upper gastrointestinal tract
[6] = oral dose of 5-20 mg granisetron
[7] = oral dose of 25-200 mg dolasetron

For `CN1C2CCCC1CC(NC(=O)c1nn(C)c3ccccc13)C2` (stereo not shown) [granisetron], the AUC [1, 6] is given as 83 to 350 ng·mL/h, the maximum plasma concentration [1, 6] is given as 14 to 68 ng/mL and the terminal elimination half-life [1, 6] is given as 1.5 to 5.7 h.

In the case of `O=C(O[C@@H]1C[C@@H]2C[C@H]3C[C@H](C1)N2CC3=O)c1c[nH]c2ccccc12` [dolasetron], the AUC [1, 7] is given as “about 1,233 ng·mL·h^−1”, the oral bioavailability [1, 7] is given as 70-89% and the terminal elimination half-life [1, 7] is given as 5 to 10 h.

In the case of `CN1[C@@H]2CC[C@H]1C[C@@H](OC(=O)c1c[nH]c3ccccc13)C2` [tropisetron], the AUC ([1]; oral dose of 5 mg tropisetron) is listed as “about 230 ng·mL·h^−1”, the maximum plasma concentration ([1]; oral dose of 5 mg tropisetron) is listed as “about 22 ng/mL” and the oral bioavailability ([1]; oral dose of 5 mg tropisetron) is listed as 60-99%. The terminal elimination half-life ([1]; oral dose of 5 mg tropisetron) was 8.6 h.

For `CC(C)c1cccc(C(C)C)c1O` [propofol, 2,6-diisopropylphenol], the “fraction of administered drug undergoing first pass metabolism” value [2] is given as “approximately 90%”, the “propofol plasma concentrations needed for sedation” value [3] is given as 1,500-2,000 ng/mL and the “propofol plasma concentrations needed for the maintenance of general anesthesia” value [3] is given as 3,000-10,000 ng/mL. For the same compound, the absolute oral bioavailability [4] was “less than 2%”.

For `CC(C)c1cccc(C(C)C)c1OC(=O)OC[C@H](N)C(=O)O` [(S)-2-amino-3-(2,6-diisopropylphenoxycarbonyloxy)-propanoic acid], the gastrointestinal absorption [5] was “limited colonic absorption”.

In the case of `Cc1nccn1CC1CCc2c(c3ccccc3n2C)C1=O` (stereo not shown) [ondansetron], the AUC ([1]; oral dose of 8 mg ondansetron) is given as 101 to 351 ng·mL/h, the maximum plasma concentration ([1]; oral dose of 8 mg ondansetron) is given as 20 to 52 ng/mL and the oral bioavailability ([1]; oral dose of 8 mg ondansetron) is given as 48-75%. The terminal elimination half-life ([1]; oral dose of 8 mg ondansetron) was 2.5 to 6.2 h.
